Source: PMC5218480 (PLoS ONE, 2017)

Tested on: MV-4-11 cells
Test: Gene expression microarray analysis (Affymetrix PrimeView) and GSEA
Format: cell-based, human
Parameters: RFU PODN (11730768_x_at) / Fold change /veh PODN (11730768_x_at) / RFU LINC00158 (11744669_a_at) / Fold change /veh LINC00158 (11744669_a_at) / RFU DUSP10 (11751237_a_at) / Fold change /veh DUSP10 (11751237_a_at) / RFU ID3 (11757404_x_at) / Fold change /veh ID3 (11757404_x_at) / RFU PLEKHG5 (11737974_s_at) / Fold change /veh PLEKHG5 (11737974_s_at) / RFU LRRC4B (11730491_at) / Fold change /veh LRRC4B (11730491_at) / RFU GIMAP4 (11747438_a_at) / Fold change /veh GIMAP4 (11747438_a_at) / RFU KRT8 (11758183_x_at) / Fold change /veh KRT8 (11758183_x_at) / RFU CNN1 (11734310_a_at) / Fold change /veh CNN1 (11734310_a_at) / RFU VPS37D (11726825_at) / Fold change /veh VPS37D (11726825_at) / RFU C10orf10 (11716522_x_at) / Fold change /veh C10orf10 (11716522_x_at) / RFU KIR2DL2 /// KIR2DL4 /// KIR2DL5A /// KIR2DL5B /// KIR2DS1 /// KIR2DS2 /// KIR2DS3 /// KIR2DS4 /// KIR3DL3 /// KIR3DL3 /// KIR3DS1 (11738374_at) / Fold change /veh KIR2DL2 /// KIR2DL4 /// KIR2DL5A /// KIR2DL5B /// KIR2DS1 /// KIR2DS2 /// KIR2DS3 /// KIR2DS4 /// KIR3DL3 /// KIR3DL3 /// KIR3DS1 (11738374_at) / RFU C1QL1 (11718748_at) / Fold change /veh C1QL1 (11718748_at) / RFU TMPRSS4 (11747572_a_at) / Fold change /veh TMPRSS4 (11747572_a_at) / RFU HAMP (11756126_x_at) / Fold change /veh HAMP (11756126_x_at) / RFU RNFT2 (11725882_a_at) / Fold change /veh RNFT2 (11725882_a_at) / RFU NR4A2 (11747474_a_at) / Fold change /veh NR4A2 (11747474_a_at) / RFU ABCC12 (11746883_a_at) / Fold change /veh ABCC12 (11746883_a_at) / RFU TMEM136 (11760407_x_at) / Fold change /veh TMEM136 (11760407_x_at) / RFU CLDN22 /// WWC2 (11732394_at) / Fold change /veh CLDN22 /// WWC2 (11732394_at) / RFU HLA-DPB1 (11760878_x_at) / Fold change /veh HLA-DPB1 (11760878_x_at) / RFU SPINT1 (11716480_a_at) / Fold change /veh SPINT1 (11716480_a_at) / RFU GAP43 (11754022_s_at) / Fold change /veh GAP43 (11754022_s_at) / RFU A4GNT (11735810_at) / Fold change /veh A4GNT (11735810_at) / RFU PRB3 (11715151_x_at) / Fold change /veh PRB3 (11715151_x_at) / RFU TUBB4B (11761932_at) / Fold change /veh TUBB4B (11761932_at) / RFU CAPN14 (11732068_a_at) / Fold change /veh CAPN14 (11732068_a_at) / RFU TMCC2 (11721928_a_at) / Fold change /veh TMCC2 (11721928_a_at) / RFU IRGQ (11745062_a_at) / Fold change /veh IRGQ (11745062_a_at) / RFU FAM174B (11720279_a_at) / Fold change /veh FAM174B (11720279_a_at) / RFU TMPRSS4 (11748680_a_at) / Fold change /veh TMPRSS4 (11748680_a_at) / RFU FAM212B (11763350_a_at) / Fold change /veh FAM212B (11763350_a_at) / RFU PLEKHG5 (11743358_a_at) / Fold change /veh PLEKHG5 (11743358_a_at) / RFU ZSCAN30 (11745921_a_at) / Fold change /veh ZSCAN30 (11745921_a_at) / RFU CMKLR1 (11741424_a_at) / Fold change /veh CMKLR1 (11741424_a_at) / RFU LOC101060620 /// MAPK8IP1 (11723275_at) / Fold change /veh LOC101060620 /// MAPK8IP1 (11723275_at) / RFU SPTSSB (11747773_x_at) / Fold change /veh SPTSSB (11747773_x_at) / RFU PRSS12 (11739890_at) / Fold change /veh PRSS12 (11739890_at) / RFU BIN1 (11741810_x_at) / Fold change /veh BIN1 (11741810_x_at) / RFU WNT11 (11732464_a_at) / Fold change /veh WNT11 (11732464_a_at) / RFU C10orf10 (11716521_a_at) / Fold change /veh C10orf10 (11716521_a_at) / RFU C5orf56 (11738089_at) / Fold change /veh C5orf56 (11738089_at) / RFU CYB561 (11721691_x_at) / Fold change /veh CYB561 (11721691_x_at) / RFU ANKRD19P (11752326_a_at) / Fold change /veh ANKRD19P (11752326_a_at) / RFU OR2T12 /// OR2T33 /// OR2T8 (11738714_s_at) / Fold change /veh OR2T12 /// OR2T33 /// OR2T8 (11738714_s_at) / RFU VCAN (11748164_a_at) / Fold change /veh VCAN (11748164_a_at) / RFU JSRP1 (11732532_at) / Fold change /veh JSRP1 (11732532_at) / RFU KRTAP10-11 (11738290_x_at) / Fold change /veh KRTAP10-11 (11738290_x_at) / RFU MYO3A (11730013_a_at) / Fold change /veh MYO3A (11730013_a_at) / RFU EBF3 (11725865_a_at) / Fold change /veh EBF3 (11725865_a_at) / RFU CAMK2N1 (11719241_x_at) / Fold change /veh CAMK2N1 (11719241_x_at) / RFU C5orf56 (11738088_a_at) / Fold change /veh C5orf56 (11738088_a_at) / RFU OLFML3 (11715873_a_at) / Fold change /veh OLFML3 (11715873_a_at) / RFU LOC100653217 /// NTM (11731650_a_at) / Fold change /veh LOC100653217 /// NTM (11731650_a_at) / RFU MAPK11 (11762145_a_at) / Fold change /veh MAPK11 (11762145_a_at) / RFU FIZ1 (11724087_x_at) / Fold change /veh FIZ1 (11724087_x_at) / RFU OASL (11726364_x_at) / Fold change /veh OASL (11726364_x_at) / RFU SOX15 (11748057_x_at) / Fold change /veh SOX15 (11748057_x_at) / RFU CD79A (11719716_a_at) / Fold change /veh CD79A (11719716_a_at) / RFU HIST1H1D (11736915_at) / Fold change /veh HIST1H1D (11736915_at) / RFU CASKIN2 (11723855_a_at) / Fold change /veh CASKIN2 (11723855_a_at) / RFU LOC730098 (11760151_x_at) / Fold change /veh LOC730098 (11760151_x_at) / RFU OR4N2 (11742367_at) / Fold change /veh OR4N2 (11742367_at) / RFU PRRT2 (11749266_a_at) / Fold change /veh PRRT2 (11749266_a_at) / RFU SNX32 (11753110_a_at) / Fold change /veh SNX32 (11753110_a_at) / RFU CDHR5 (11726645_a_at) / Fold change /veh CDHR5 (11726645_a_at) / RFU RCAN1 (11760418_a_at) / Fold change /veh RCAN1 (11760418_a_at) / RFU FAM167A (11723789_a_at) / Fold change /veh FAM167A (11723789_a_at) / RFU FAM26E (11764081_at) / Fold change /veh FAM26E (11764081_at) / RFU ISYNA1 (11749810_s_at) / Fold change /veh ISYNA1 (11749810_s_at) / RFU ACY1 (11761880_at) / Fold change /veh ACY1 (11761880_at) / RFU 11764098_at / Fold change /veh 11764098_at / RFU SAMD14 (11745864_x_at) / Fold change /veh SAMD14 (11745864_x_at) / RFU NPB (11741838_a_at) / Fold change /veh NPB (11741838_a_at) / RFU TMPRSS6 (11731388_a_at) / Fold change /veh TMPRSS6 (11731388_a_at) / RFU KRTAP10-2 (11738614_at) / Fold change /veh KRTAP10-2 (11738614_at) / RFU ARHGAP8 /// PRR5-ARHGAP8 (11727945_x_at) / Fold change /veh ARHGAP8 /// PRR5-ARHGAP8 (11727945_x_at) / RFU KRTAP5-7 /// NADSYN1 (11734609_at) / Fold change /veh KRTAP5-7 /// NADSYN1 (11734609_at) / RFU RASL12 (11751679_a_at) / Fold change /veh RASL12 (11751679_a_at) / RFU CDKN2B (11736163_a_at) / Fold change /veh CDKN2B (11736163_a_at) / RFU PRF1 (11729649_at) / Fold change /veh PRF1 (11729649_at) / RFU, ZNF638 /// ZNF638-IT1 / Fold change vs veh, ZNF638 /// ZNF638-IT1 / RFU, PANK3 / Fold change vs veh, PANK3 / RFU, SH3YL1 / Fold change vs veh, SH3YL1 / RFU, ZEB2 / Fold change vs veh, ZEB2 / RFU, NRIP1 / Fold change vs veh, NRIP1 / RFU, PTTG1IP / Fold change vs veh, PTTG1IP / RFU, CAPN2 / Fold change vs veh, CAPN2 / RFU, MED14 / Fold change vs veh, MED14 / RFU, SNORA58 / Fold change vs veh, SNORA58 / RFU, C1orf63 / Fold change vs veh, C1orf63 / RFU, LRRFIP1 / Fold change vs veh, LRRFIP1 / RFU, NDUFAF7 / Fold change vs veh, NDUFAF7 / RFU, SLC12A2 / Fold change vs veh, SLC12A2 / RFU, IBTK / Fold change vs veh, IBTK / RFU, ESF1 / Fold change vs veh, ESF1 / Fold change vs veh, TMEM50B / RFU, TAOK1 / Fold change vs veh, TAOK1 / RFU, ACBD3 / Fold change vs veh, ACBD3 / RFU, TMA16 / Fold change vs veh, TMA16 / RFU, RWDD3 / Fold change vs veh, RWDD3 / RFU, BCAT1 / Fold change vs veh, BCAT1 / RFU, EDEM3 / Fold change vs veh, EDEM3 / RFU, TMEM33 / Fold change vs veh, TMEM33 / RFU, WDR75 / Fold change vs veh, WDR75 / RFU, AHCTF1 / Fold change vs veh, AHCTF1 / RFU, TFRC / Fold change vs veh, TFRC / RFU, ZDHHC17 / Fold change vs veh, ZDHHC17 / RFU, NOM1 / Fold change vs veh, NOM1 / RFU, ARL8B / Fold change vs veh, ARL8B / RFU, ZBTB11 / Fold change vs veh, ZBTB11 / RFU, TAMM41 / Fold change vs veh, TAMM41 / RFU, KIAA1704 /// LOC100996395 / Fold change vs veh, KIAA1704 /// LOC100996395 / RFU, ING1 / Fold change vs veh, ING1 / RFU, TRMT61B / Fold change vs veh, TRMT61B / RFU, FUBP3 / Fold change vs veh, FUBP3 / RFU, TP53 / Fold change vs veh, TP53 / RFU, TNKS2 / Fold change vs veh, TNKS2 / RFU, ZFP14 / Fold change vs veh, ZFP14 / RFU, ACTR2 / Fold change vs veh, ACTR2 / RFU, PPP3R1 / Fold change vs veh, PPP3R1 / RFU, PIK3R1 / Fold change vs veh, PIK3R1 / RFU, HNRNPA1 / Fold change vs veh, HNRNPA1 / RFU, RNF170 / Fold change vs veh, RNF170 / RFU, ZNF28 / Fold change vs veh, ZNF28 / RFU, RNGTT / Fold change vs veh, RNGTT / RFU, OGT / Fold change vs veh, OGT / RFU, BRD1 / Fold change vs veh, BRD1 / RFU, MARS / Fold change vs veh, MARS / RFU, ZNF655 / Fold change vs veh, ZNF655 / RFU, FAHD1 / Fold change vs veh, FAHD1 / RFU, BDP1 / Fold change vs veh, BDP1 / RFU, LRRCC1 / Fold change vs veh, LRRCC1 / RFU, ARID1A / Fold change vs veh, ARID1A / RFU, ZNF146 / Fold change vs veh, ZNF146 / RFU, ZNF330 / Fold change vs veh, ZNF330 / RFU, GPN3 / Fold change vs veh, GPN3 / RFU, C9orf123 / Fold change vs veh, C9orf123 / RFU, N4BP2L2 / Fold change vs veh, N4BP2L2 / RFU, ARFIP1 / Fold change vs veh, ARFIP1 / RFU, FAM179B / Fold change vs veh, FAM179B / RFU, BCL10 / Fold change vs veh, BCL10 / RFU, UHRF1BP1L / Fold change vs veh, UHRF1BP1L / RFU, BET1 / Fold change vs veh, BET1 / RFU, CNOT2 / Fold change vs veh, CNOT2 / RFU, ZNF268 / Fold change vs veh, ZNF268 / Fold change vs veh, ZNF507 / RFU, DGCR2 / Fold change vs veh, DGCR2 / RFU, WDSUB1 / Fold change vs veh, WDSUB1 / Fold change vs veh, HSP90B1 /// MIR3652 / RFU, ADSS / Fold change vs veh, ADSS / RFU, GK / Fold change vs veh, GK / RFU, ZNF148 / Fold change vs veh, ZNF148 / RFU, TAF9 / Fold change vs veh, TAF9 / RFU, SLC1A5 / Fold change vs veh, SLC1A5 / RFU, SLMO2 / Fold change vs veh, SLMO2 / RFU, ABCC4 / Fold change vs veh, ABCC4 / RFU, LOC101060439 /// RAP1B / Fold change vs veh, LOC101060439 /// RAP1B / RFU, RFX7 / Fold change vs veh, RFX7 / RFU, GTPBP10 / Fold change vs veh, GTPBP10 / RFU, CNEP1R1 / Fold change vs veh, CNEP1R1 / RFU, BIVM-ERCC5 /// ERCC5 / Fold change vs veh, BIVM-ERCC5 /// ERCC5 / RFU, ILF3 / Fold change vs veh, ILF3 / RFU 11762660_at / Fold change /veh 11762660_at / RFU VCAN (11757783_s_at) / Fold change /veh VCAN (11757783_s_at) / RFU DDX43 (11728927_at) / Fold change /veh DDX43 (11728927_at) / RFU KRT8 (11758188_x_at) / Fold change /veh KRT8 (11758188_x_at) / RFU NKD1 (11759106_at) / Fold change /veh NKD1 (11759106_at) / RFU SRD5A1 (11742802_a_at) / Fold change /veh SRD5A1 (11742802_a_at) / RFU TPSAB1 /// TPSB2 (11721975_s_at) / Fold change /veh TPSAB1 /// TPSB2 (11721975_s_at) / RFU GSTM3 (11746129_a_at) / Fold change /veh GSTM3 (11746129_a_at) / RFU IL23R (11737362_x_at) / Fold change /veh IL23R (11737362_x_at) / RFU TMEM51 (11727254_a_at) / Fold change /veh TMEM51 (11727254_a_at) / RFU PIWIL2 (11732686_x_at) / Fold change /veh PIWIL2 (11732686_x_at) / RFU ORM1 (11744905_x_at) / Fold change /veh ORM1 (11744905_x_at) / RFU CCDC152 (11743942_at) / Fold change /veh CCDC152 (11743942_at) / RFU ECM1 (11717891_a_at) / Fold change /veh ECM1 (11717891_a_at) / RFU IL23R (11748794_a_at) / Fold change /veh IL23R (11748794_a_at) / RFU TNFAIP8L3 (11732012_x_at) / Fold change /veh TNFAIP8L3 (11732012_x_at) / RFU MBOAT4 (11741988_at) / Fold change /veh MBOAT4 (11741988_at) / RFU 11764193_at / Fold change /veh 11764193_at / RFU TMEM53 (11763286_at) / Fold change /veh TMEM53 (11763286_at) / RFU MAGEB2 (11727129_at) / Fold change /veh MAGEB2 (11727129_at) / RFU TMEM200A (11744735_a_at) / Fold change /veh TMEM200A (11744735_a_at) / RFU CCDC152 (11751479_a_at) / Fold change /veh CCDC152 (11751479_a_at) / RFU FAM211A (11726209_a_at) / Fold change /veh FAM211A (11726209_a_at) / RFU RGS16 (11746705_a_at) / Fold change /veh RGS16 (11746705_a_at) / RFU VCAN (11755009_s_at) / Fold change /veh VCAN (11755009_s_at) / RFU RHOB (11743442_s_at) / Fold change /veh RHOB (11743442_s_at) / RFU RGS16 (11720943_a_at) / Fold change /veh RGS16 (11720943_a_at) / RFU RGS16 (11720944_at) / Fold change /veh RGS16 (11720944_at) / RFU, VPS4B / Fold change vs veh, VPS4B / RFU, CREB1 / Fold change vs veh, CREB1 / RFU, DNAJC13 / Fold change vs veh, DNAJC13 / RFU, GNAQ / Fold change vs veh, GNAQ / RFU, CDK5R1 / Fold change vs veh, CDK5R1 / RFU, ZRANB3 / Fold change vs veh, ZRANB3 / RFU, CUL4A / Fold change vs veh, CUL4A / RFU, CCNY / Fold change vs veh, CCNY / RFU, UFL1 / Fold change vs veh, UFL1 / RFU, COG3 / Fold change vs veh, COG3 / RFU, DIAPH2 / Fold change vs veh, DIAPH2 / RFU, SKA2 / Fold change vs veh, SKA2 / RFU, AFF3 / Fold change vs veh, AFF3 / RFU, LMF1 / Fold change vs veh, LMF1 / RFU, IPO11 / Fold change vs veh, IPO11 / RFU, DFFB / Fold change vs veh, DFFB / RFU, FOXP1 / Fold change vs veh, FOXP1 / RFU, CARD8 / Fold change vs veh, CARD8 / RFU, STRN3 / Fold change vs veh, STRN3 / RFU, ADK / Fold change vs veh, ADK / RFU, RASSF2 / Fold change vs veh, RASSF2 / RFU, WIPF1 / Fold change vs veh, WIPF1 / RFU, LARP1B / Fold change vs veh, LARP1B / RFU, RASA1 / Fold change vs veh, RASA1 / RFU, RB1 / Fold change vs veh, RB1 / RFU, PPFIA1 / Fold change vs veh, PPFIA1 / RFU, MAT2A / Fold change vs veh, MAT2A / RFU, CCT5 / Fold change vs veh, CCT5 / RFU, WDR92 / Fold change vs veh, WDR92 / RFU, CUX1 / Fold change vs veh, CUX1 / RFU, TTC7A / Fold change vs veh, TTC7A / RFU, TMEM135 / Fold change vs veh, TMEM135 / RFU, DEPTOR / Fold change vs veh, DEPTOR / RFU, CPM / Fold change vs veh, CPM / RFU, DNAJB6 / Fold change vs veh, DNAJB6 / RFU, CACNA2D3 / Fold change vs veh, CACNA2D3 / RFU, DTX4 / Fold change vs veh, DTX4 / RFU, TFCP2 / Fold change vs veh, TFCP2 / RFU, GMCL1 /// GMCL1P1 / Fold change vs veh, GMCL1 /// GMCL1P1 / RFU, AEBP2 / Fold change vs veh, AEBP2 / RFU, SNHG1 /// SNORD22 /// SNORD25 /// SNORD26 /// SNORD27 /// SNORD28 /// SNORD29 /// SNORD31 / Fold change vs veh, SNHG1 /// SNORD22 /// SNORD25 /// SNORD26 /// SNORD27 /// SNORD28 /// SNORD29 /// SNORD31 / Fold change (Aza/veh), C12orf56 (ProbeSet 11735607_a_at) / Fold change (ACY-1035/veh), C12orf56 (ProbeSet 11735607_a_at) / Fold change (Aza/veh), FGFR1OP (ProbeSet 11751329_s_at) / Fold change (ACY-1035/veh), FGFR1OP (ProbeSet 11751329_s_at) / Fold change (Aza/veh), VPS36 (ProbeSet 11739960_a_at) / Fold change (ACY-1035/veh), VPS36 (ProbeSet 11739960_a_at) / RFU SYPL1 (11715823_x_at) / Fold change /veh SYPL1 (11715823_x_at) / RFU IGFBP7 (11715501_s_at) / Fold change /veh IGFBP7 (11715501_s_at) / RFU REEP3 (11722064_at) / Fold change /veh REEP3 (11722064_at) / RFU IGLL1 (11728026_x_at) / Fold change /veh IGLL1 (11728026_x_at): dose or concentration left out as unconfirmed
Settings: ProbeSet 11749645_x_at; LIST B

**Q.** `Nc1ncn([C@@H]2O[C@H](CO)[C@@H](O)[C@H]2O)c(=O)n1` [azacitidine] was tested. Which “RFU, ZNF268” value did it give?
**A.** Its value is 156.52 RFU.
